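Five compound concentrations were applied to cells in 96-well plates for 48 hours; endpoints were derived by simple linear interpolation of the resulting dose-response curve. GI50: concentration for 50% inhibition of growth. TGI denotes the concentration required for complete inhibition of growth.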
Legend:
Assay in all cases: NCI anticancer screen, dose series, 48 h
[1] = tested on: A498 renal
[2] = tested on: ACHN renal
[3] = tested on: CCRF-CEM leukemia
[4] = tested on: DU-145 prostate
[5] = tested on: HCT-15 colon
[6] = tested on: HT29 colon
[7] = tested on: K-562 leukemia
[8] = tested on: MOLT-4 leukemia
[9] = tested on: NCI/ADR-RES ovarian
[10] = tested on: OVCAR-4 ovarian
[11] = tested on: OVCAR-5 ovarian
[12] = tested on: SN12C renal
[13] = tested on: SNB-75 CNS
[14] = tested on: SR leukemia
[15] = tested on: SW-620 colon
[16] = tested on: TK-10 renal
[17] = tested on: UACC-62 melanoma
[18] = tested on: 786-0 renal
[19] = tested on: A549 NSCLC
[20] = tested on: CAKI-1 renal
[21] = tested on: HCT-116 colon
[22] = tested on: HL-60(TB) leukemia
[23] = tested on: HOP-62 NSCLC
[24] = tested on: HOP-92 NSCLC
[25] = tested on: IGROV1 ovarian
[26] = tested on: KM12 colon
[27] = tested on: LOX IMVI melanoma
[28] = tested on: M14 melanoma
[29] = tested on: MCF7 breast
[30] = tested on: MDA-MB-231 breast
[31] = tested on: NCI-H226 lung
[32] = tested on: NCI-H23 lung
[33] = tested on: NCI-H460 lung
[34] = tested on: NCI-H522 lung
[35] = tested on: OVCAR-3 ovarian
[36] = tested on: OVCAR-8 ovarian
[37] = tested on: PC-3 prostate
[38] = tested on: RPMI-8226 leukemia
[39] = tested on: SF-268 CNS
[40] = tested on: SF-295 CNS
[41] = tested on: SF-539 CNS
[42] = tested on: SK-MEL-2 melanoma
[43] = tested on: SK-MEL-28 melanoma
[44] = tested on: SK-MEL-5 melanoma
[45] = tested on: SK-OV-3 ovarian
[46] = tested on: U251 CNS
[47] = tested on: UACC-257 melanoma
[48] = tested on: UO-31 renal
[49] = tested on: COLO 205 colon
[50] = tested on: EKVX NSCLC
[51] = tested on: HCC-2998 colon
[52] = tested on: HS 578T breast
[53] = tested on: MALME-3M melanoma
[54] = tested on: MDA-MB-435
[55] = tested on: RXF 393 renal
[56] = tested on: SNB-19 CNS
[57] = tested on: T-47D breast

CCCc1cn2c(/C=N/N=C(N)N)c(-c3cc([N+](=O)[O-])c(Cl)cc3Cl)nc2s1
TGI [1]: 2880 nM | TGI [2]: 3160 nM | TGI [3]: 860 nM | TGI [4]: 3530 nM | TGI [5]: 3020 nM | TGI [6]: 2460 nM | TGI [7]: 2490 nM | TGI [8]: 873 nM | TGI [9]: 4310 nM | TGI [10]: 2830 nM | TGI [11]: 3120 nM | TGI [12]: 3160 nM | TGI [13]: 3070 nM | TGI [14]: 2920 nM | TGI [15]: 2970 nM | TGI [16]: 2330 nM | TGI [17]: 3150 nM

CCN1/C(=C/C(C)=C/c2sc3ccc4ccccc4c3[n+]2CC)Sc2ccc3ccccc3c21
GI50 [18]: 268 nM | TGI [18]: 1090 nM | GI50 [1]: 181 nM | TGI [1]: 759 nM | GI50 [19]: 27.1 nM | TGI [19]: 272 nM | GI50 [2]: 147 nM | TGI [2]: 614 nM | GI50 [20]: 264 nM | TGI [20]: 1150 nM | GI50 [4]: 142 nM | TGI [4]: 631 nM | GI50 [21]: 127 nM | TGI [21]: 293 nM | GI50 [5]: 219 nM | TGI [5]: 744 nM | GI50 [22]: 106 nM | TGI [22]: 2680 nM | GI50 [23]: 192 nM | TGI [23]: 470 nM | GI50 [24]: 163 nM | TGI [24]: 612 nM | GI50 [6]: 109 nM | TGI [6]: 233 nM | GI50 [25]: 146 nM | TGI [25]: 404 nM | GI50 [7]: 1030 nM | TGI [7]: 18400 nM | GI50 [26]: 136 nM | TGI [26]: 276 nM | GI50 [27]: 183 nM | TGI [27]: 465 nM | GI50 [28]: 196 nM | TGI [28]: 580 nM | GI50 [29]: 149 nM | TGI [29]: 420 nM | GI50 [30]: 271 nM | TGI [30]: 1040 nM | GI50 [8]: 164 nM | TGI [8]: 2150 nM | GI50 [31]: 225 nM | TGI [31]: 1270 nM | GI50 [32]: 108 nM | TGI [32]: 1190 nM | GI50 [33]: 121 nM | TGI [33]: 329 nM | GI50 [34]: 121 nM | TGI [34]: 528 nM | GI50 [9]: 964 nM | TGI [9]: 5610 nM | GI50 [35]: 148 nM | TGI [35]: 317 nM | GI50 [10]: 138 nM | TGI [10]: 1260 nM | GI50 [11]: 486 nM | TGI [11]: 1930 nM | GI50 [36]: 67 nM | TGI [36]: 830 nM | GI50 [37]: 85 nM | TGI [37]: 1460 nM | GI50 [38]: < 13.4 nM | TGI [38]: 131 nM | GI50 [39]: 198 nM | TGI [39]: 678 nM | GI50 [40]: 121 nM | TGI [40]: 674 nM | GI50 [41]: 227 nM | TGI [41]: 1010 nM | GI50 [42]: 193 nM | TGI [42]: 586 nM | GI50 [43]: 165 nM | TGI [43]: 329 nM | GI50 [44]: 123 nM | TGI [44]: 352 nM | GI50 [45]: 236 nM | TGI [45]: 780 nM | GI50 [12]: 189 nM | TGI [12]: 1050 nM | GI50 [13]: 205 nM | TGI [13]: 761 nM | GI50 [15]: 114 nM | TGI [15]: 277 nM | GI50 [16]: 217 nM | TGI [16]: 997 nM | GI50 [46]: 108 nM | TGI [46]: 336 nM | GI50 [47]: 11.5 nM | TGI [47]: 91.6 nM | GI50 [17]: 310 nM | TGI [17]: 1800 nM | GI50 [48]: 181 nM | TGI [48]: 571 nM

COc1ccc(OC)c(N2CC(O)=C(c3nc4ccccc4s3)C2=N)c1
GI50 [18]: > 100000 nM | TGI [18]: > 100000 nM | GI50 [1]: 18900 nM | TGI [1]: 59600 nM | GI50 [19]: 71200 nM | TGI [19]: > 100000 nM | GI50 [2]: 51600 nM | TGI [2]: > 100000 nM | GI50 [20]: 76600 nM | TGI [20]: > 100000 nM | GI50 [3]: 541 nM | TGI [3]: > 100000 nM | GI50 [49]: 47300 nM | TGI [49]: > 100000 nM | GI50 [4]: > 100000 nM | TGI [4]: > 100000 nM | GI50 [50]: 67300 nM | TGI [50]: > 100000 nM | GI50 [51]: 32500 nM | TGI [51]: > 100000 nM | GI50 [21]: 57500 nM | TGI [21]: > 100000 nM | GI50 [5]: 5220 nM | TGI [5]: > 100000 nM | GI50 [23]: > 100000 nM | TGI [23]: > 100000 nM | GI50 [24]: 40600 nM | TGI [24]: > 100000 nM | GI50 [52]: 34500 nM | TGI [52]: > 100000 nM | GI50 [6]: 42800 nM | TGI [6]: > 100000 nM | GI50 [25]: 33100 nM | TGI [25]: > 100000 nM | GI50 [7]: 23600 nM | TGI [7]: > 100000 nM | GI50 [26]: 39100 nM | TGI [26]: > 100000 nM | GI50 [27]: 45400 nM | TGI [27]: > 100000 nM | GI50 [28]: > 100000 nM | TGI [28]: > 100000 nM | GI50 [53]: 16400 nM | TGI [53]: 82000 nM | GI50 [29]: 60800 nM | TGI [29]: > 100000 nM | GI50 [30]: 20600 nM | TGI [30]: > 100000 nM | GI50 [54]: 20800 nM | TGI [54]: > 100000 nM | GI50 [8]: 4160 nM | TGI [8]: > 100000 nM | GI50 [31]: 56900 nM | TGI [31]: > 100000 nM | GI50 [32]: > 100000 nM | TGI [32]: > 100000 nM | GI50 [33]: 63000 nM | TGI [33]: > 100000 nM | GI50 [34]: 17900 nM | TGI [34]: 78100 nM | GI50 [9]: 88900 nM | TGI [9]: > 100000 nM | GI50 [35]: 74100 nM | TGI [35]: > 100000 nM | GI50 [10]: 45600 nM | TGI [10]: > 100000 nM | GI50 [11]: > 100000 nM | TGI [11]: > 100000 nM | GI50 [36]: 98700 nM | TGI [36]: > 100000 nM | GI50 [37]: 52500 nM | TGI [37]: > 100000 nM | GI50 [38]: 35700 nM | TGI [38]: > 100000 nM | GI50 [55]: 95000 nM | TGI [55]: > 100000 nM | GI50 [39]: > 100000 nM | TGI [39]: > 100000 nM | GI50 [40]: 60900 nM | TGI [40]: > 100000 nM | GI50 [41]: 83800 nM | TGI [41]: > 100000 nM | GI50 [42]: 26100 nM | TGI [42]: > 100000 nM | GI50 [43]: 49500 nM | TGI [43]: > 100000 nM | GI50 [44]: 14700 nM | TGI [44]: 46600 nM | GI50 [45]: > 100000 nM | TGI [45]: > 100000 nM | GI50 [12]: 58000 nM | TGI [12]: > 100000 nM | GI50 [56]: > 100000 nM | TGI [56]: > 100000 nM | GI50 [13]: 32000 nM | TGI [13]: > 100000 nM | GI50 [14]: 6770 nM | TGI [14]: > 100000 nM | GI50 [15]: 32700 nM | TGI [15]: > 100000 nM | GI50 [57]: > 100000 nM | TGI [57]: > 100000 nM | GI50 [16]: > 100000 nM | TGI [16]: > 100000 nM | GI50 [46]: 51500 nM | TGI [46]: > 100000 nM | GI50 [47]: > 100000 nM | TGI [47]: > 100000 nM | GI50 [17]: 26400 nM | TGI [17]: > 100000 nM | GI50 [48]: 36200 nM | TGI [48]: > 100000 nM

— PubChem BioAssay (NCI)
